# Laboratory results published in ChEMBL document CHEMBL6109094, “Anti-inflammatory agents design via the fragment hybrid strategy in the discovery of compound c1 for treating ALI and UC” (Eur J Med Chem, 2025).
# Active and inactive are the calls of the source. No cut-off for these calls is given here.
# Tests used:
# RAW264.7 [1] = test: Anti-inflammatory activity in mouse RAW264.7 cells assessed as inhibition of LPS-induced TNF-alpha mRNA level preincubated for 2 hrs followed by LPS addition measured after 6 hrs by RT-qPCR analysis; assay type: functional, cell-based; settings: dose 1-4 µM, time 8.0 hrs
# RAW264.7 [2] = test: Inhibition of MAPK signalling pathway in mouse RAW264.7 cells assessed as reduction in p38 phosphorylation at 2.5 uM preincubated for 2 hrs followed by LPS addition measured after 30 mins by Western blot analysis; assay type: cell-based; settings: time 2.5 hrs
# Mus musculus [3] = test: Anti-inflammatory activity in C57BL/6 mouse model of DSS-induced ulcerative colitis assessed as decrease in hyperplasia in white pulp of spleen administered orally for 8 days; assay type: functional, organism-based; settings: dose 20-40 mg/kg, route po, time 8.0 day
# RAW264.7 [4] = test: cells; settings: Mus musculus
# Description: Anti-inflammatory activity in mouse RAW264.7 cells assessed as inhibition of LPS-induced TNF-alpha level preincubated for 30 mins followed by LPS addition measured after 24 hrs by ELISA
# Mus musculus [5] = test: Anti-inflammatory activity in C57BL/6 mouse model of LPS-induced ALI assessed as inhibition of IL-6 level in BALF at 20 mg/kg, po measured after 6 hrs with administered on every 12 hrs followed by LPS treatment after 30 mins post-compound treatment by ELISA; assay type: functional, organism-based; settings: time 6.5 hrs
# THP-1 [6] = test: cells; settings: Homo sapiens
# Description: Anti-inflammatory activity in human THP-1 cells assessed as inhibition of LPS-induced IL-6 level preincubated for 30 mins followed by LPS addition measured after 24 hrs by ELISA
# RAW264.7 [7] = test: Anti-inflammatory activity in mouse RAW264.7 cells assessed as inhibition of LPS-induced IL-6 level at 10 uM preincubated for 30 mins followed by LPS addition measured after 24 hrs by ELISA relative to control; assay type: functional; settings: time 24.5 hrs
# [8] = AUC (0 to t) in Sprague-Dawley rat at 1 mg/kg, iv measured for 24 hrs; assay type: ADME, organism-based; settings: in vivo
# [9] = Acute toxicity in C57BL/6 mouse assessed as change in body weight change at 100 to 200 mg/kg, po measured for 10 days; assay type: organism-based; settings: in vivo, 240 h, dose 100-200 mg/kg, time 10 day
# THP-1 [10] = test: cells; settings: Homo sapiens; remark: listed apart in the source
# Description: Anti-inflammatory activity in human THP-1 cells assessed as inhibition of LPS-induced TNF-alpha level preincubated for 30 mins followed by LPS addition measured after 24 hrs by ELISA
# Mus musculus [11] = test: Anti-inflammatory activity in C57BL/6 mouse model of LPS-induced ALI assessed as decrease in thickening of interstitial edema in lung tissue at 20 mg/kg, po measured after 6 hrs with administered on every 12 hrs followed by LPS treatment after 30 mins post-compound treatment by H and E/IHC staining based analysis; assay type: functional, organism-based; settings: time 6.5 hrs
# [12] = Acute toxicity in C57BL/6 mouse assessed as change in physiological state at 100 to 200 mg/kg, po measured for 10 days; assay type: organism-based; settings: in vivo, 240 h, dose 100-200 mg/kg, time 10 day
# J774.A1 [13] = test: cells; settings: Mus musculus
# Description: Anti-inflammatory activity in mouse J774.A1 cells assessed as inhibition of LPS-induced IL-6 level preincubated for 30 mins followed by LPS addition measured after 24 hrs by ELISA
# [14] = Cmax in Sprague-Dawley rat at 1 mg/kg, iv measured for 24 hrs; assay type: ADME, organism-based; settings: in vivo
# [15] = Acute toxicity in C57BL/6 mouse assessed as change in pathological change in liver at 100 to 200 mg/kg, po measured for 10 days by H and E staining based analysis; assay type: organism-based; settings: in vivo, 240 h, dose 100-200 mg/kg, time 10 day
# [16] = Tmax in Sprague-Dawley rat at 10 mg/kg, po measured for 24 hrs; assay type: ADME, organism-based; settings: in vivo
# [17] = Cmax in Sprague-Dawley rat at 10 mg/kg, po measured for 24 hrs; assay type: ADME, organism-based; settings: in vivo
# [18] = Oral bioavailability in Sprague-Dawley rat at 10 mg/kg measured for 24 hrs; assay type: ADME, organism-based; settings: in vivo
# Mus musculus [19] = test: Anti-inflammatory activity in C57BL/6 mouse model of DSS-induced ulcerative colitis assessed as decrease in macrophage population in red pulp of spleen administered orally for 8 days; assay type: functional, organism-based; settings: dose 20-40 mg/kg, route po, time 8.0 day
# [20] = target: Mitogen-activated protein kinase 9 (Homo sapiens) (UniProt P45984); test: Inhibition of JNK2 (unknown origin) at 10 uM relative to control
# Mus musculus [21] = test: Anti-inflammatory activity in C57BL/6 mouse model of LPS-induced ALI assessed as decrease in lung wet to dry ratio at 20 mg/kg, po measured after 6 hrs with administered on every 12 hrs followed by LPS treatment after 30 mins post-compound treatment; assay type: functional, organism-based; settings: time 6.5 hrs
# Mus musculus [22] = test: Anti-inflammatory activity in C57BL/6 mouse model of LPS-induced ALI assessed as decrease in inflammatory cell infiltration in lung tissue at 20 mg/kg, po measured after 6 hrs with administered on every 12 hrs followed by LPS treatment after 30 mins post-compound treatment by H and E/IHC staining based analysis; assay type: functional, organism-based; settings: time 6.5 hrs
# J774.A1 [23] = test: cells; settings: Mus musculus; remark: listed apart in the source
# Description: Anti-inflammatory activity in mouse J774.A1 cells assessed as inhibition of LPS-induced TNF-alpha level preincubated for 30 mins followed by LPS addition measured after 24 hrs by ELISA
# Mus musculus [24] = test: Anti-inflammatory activity in C57BL/6 mouse model of LPS-induced ALI assessed as decrease in protein concentration in BALF at 20 mg/kg, po measured after 6 hrs with administered on every 12 hrs followed by LPS treatment after 30 mins post-compound treatment; assay type: functional, organism-based; settings: time 6.5 hrs
# [25] = Half life in Sprague-Dawley rat at 10 mg/kg, po measured for 24 hrs; assay type: ADME, organism-based; settings: in vivo
# [26] = target: Mitogen-activated protein kinase 14 (Homo sapiens) (UniProt Q16539); test: Inhibition of p38-alpha (unknown origin) at 10 uM relative to control
# Sequence of Mitogen-activated protein kinase 14 (Homo sapiens) (Q16539 whole entry): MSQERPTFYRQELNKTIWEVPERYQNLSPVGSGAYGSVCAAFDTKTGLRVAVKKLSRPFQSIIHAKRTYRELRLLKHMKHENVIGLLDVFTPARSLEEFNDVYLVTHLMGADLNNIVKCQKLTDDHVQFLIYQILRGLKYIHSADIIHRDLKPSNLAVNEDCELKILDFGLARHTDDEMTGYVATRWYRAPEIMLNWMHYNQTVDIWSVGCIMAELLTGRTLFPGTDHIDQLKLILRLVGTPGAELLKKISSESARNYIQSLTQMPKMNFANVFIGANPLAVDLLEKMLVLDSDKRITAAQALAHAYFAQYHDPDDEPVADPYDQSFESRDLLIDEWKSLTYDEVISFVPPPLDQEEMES
# Sequence of Mitogen-activated protein kinase 9 (Homo sapiens) (P45984 whole entry, looked up): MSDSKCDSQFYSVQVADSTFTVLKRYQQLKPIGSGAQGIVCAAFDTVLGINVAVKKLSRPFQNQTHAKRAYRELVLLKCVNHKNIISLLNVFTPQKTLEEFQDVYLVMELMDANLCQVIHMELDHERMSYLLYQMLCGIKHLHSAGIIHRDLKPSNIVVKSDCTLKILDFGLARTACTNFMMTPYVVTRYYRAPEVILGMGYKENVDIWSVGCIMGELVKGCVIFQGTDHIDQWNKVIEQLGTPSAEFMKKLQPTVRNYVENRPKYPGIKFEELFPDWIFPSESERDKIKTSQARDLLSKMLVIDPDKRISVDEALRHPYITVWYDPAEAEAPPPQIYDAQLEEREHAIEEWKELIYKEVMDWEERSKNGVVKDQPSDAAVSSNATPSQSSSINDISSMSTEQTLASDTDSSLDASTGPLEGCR
smiles,measurement,setting,value
COc1cc2c(O[C@H]3CC[C@@H](N)CC3)ncnc2cc1OCc1cccc(Br)c1,inhibition,RAW264.7 [1],Dose-dependent-effect
same,inhibition,RAW264.7 [2],Active
same,Activity,Mus musculus [3],Dose-dependent-effect
same,IC50,RAW264.7 [4],1.52 µM
same,inhibition,Mus musculus [5],Active
same,IC50,THP-1 [6],0.96 µM
same,inhibition at 10 µM,RAW264.7 [7],73.6%
same,AUC(0-t) at 24 h,[8],7.73 µg·h/mL
same,Activity,[9],Non-toxic
same,IC50,THP-1 [10],5.03 µM
same,Activity,Mus musculus [11],Active
same,Activity,[12],Non-toxic
same,IC50,J774.A1 [13],1.5 µM
same,Cmax,[14],7.28 µg/mL
same,Activity,[15],Non-toxic
same,Tmax,[16],2 h
same,Cmax,[17],0.856 µg/mL
same,bioavailability,[18],5.5%
same,Activity,Mus musculus [19],Dose-dependent-effect
same,inhibition,[20],2.49%
same,Activity,Mus musculus [21],Active
same,Activity,Mus musculus [22],Active
same,IC50,J774.A1 [23],1.33 µM
same,Activity,Mus musculus [24],Active
same,half-life,[25],3 h
same,inhibition,[26],31.4%
